From patent US20140004458A1, “MAGENTA TONER” (CANON KABUSHIKI KAISHA, priority 2011, published 2014)

What was measured:
[1] = evaluation of lightness and saturation of image sample (L*a*b* chromaticity); type: physicochemical; settings: toner using the compound, in words
Protocol: Image samples were formed using the resulting toners. The lightness and saturation of the samples were evaluated. To compare image characteristics, an image output test was made using a modified apparatus of LBP-5300 (manufactured by CANON KABUSHIKI KAISHA) as an image forming apparatus. The modification was performed in such a manner that a developing blade in a process cartridge was replaced with a stainless blade having a thickness of […] and that a blade bias of −200 V against a developing bias that was applied to a developing roller serving as a toner support was applicable.
With respect to each of the resulting image samples, chromaticity (L*, a*, b*) in the L*a*b* color system was measured with a reflection densitometer (Model: SpectroLino, manufactured by GretagMacbeth).
In the L*a*b* space, color coordinates indicating the magenta color of the Japan Color 2001 are defined as X (L1, a1, b1). In the L*a*b* space, coordinates of an intersection point of a plane including the L* axis and the coordinates X and the a*b* curve of the image sample obtained by the chromaticity measurement are defined as Y (L2, a2, b2). The a*b* curve is obtained by forming a plurality of image samples having different toner adhesion amounts. The difference Δc (=c2−c1) between a c* value [=c2={(a2^2+b2^2)}^1/2] at the intersection point Y and a c* value [=c1={(a1^2+b1^2)}^1/2] at the coordinates X was calculated. The difference ΔL (=L2−L1) between an L* value (=L2) at the intersection point Y and an L* value (=L1) at the coordinates X was calculated.
The lightness and saturation were evaluated on the basis of the following evaluation criteria.
A: Δc is 0 or more, and ΔL is 0 or more; B: Δc is −5 or more, and ΔL is −5 or more, excluding the case of Class A described above; and C: Δc is less than −5, or ΔL is less than −5.
In the case where Δc was −5 or more and ΔL was −5 or more, the sample was evaluated to have satisfactory lightness and saturation.

[2] = evaluation of lightfastness of image sample (Atlas Weather-Ometer Ci4000); type: physicochemical; settings: toner using the compound, in words; for lightfastness: satisfactory = ΔE less than 10 after 60 hours
Protocol: The image samples were placed in Atlas Weather-Ometer Ci4000 (from Toyo Seiki Seisaku-sho, Ltd.) and exposed for 60 hours. In this case, measurement conditions were as follows: black panel temperature: 50° C., chamber temperature: 40° C., relative humidity: 70%, and irradiance: 0.39 W/m^2 (340 nm).
The chromaticity (L*, a*, b*) in the L*a*b* color system was measured with the reflection densitometer (Model: SpectroLino, manufactured by GretagMacbeth) before and after the exposure test. The color difference (ΔE) was calculated from the following expression on the basis of measurements of the color characteristics:
Color difference(ΔE)={(a*before test−a*after test)^2+(b*before test−b*after test)^2+(L*before test−L*after test)^2}^1/2
In the case where ΔE was less than 10 after 60 hours, the sample was evaluated to have satisfactory lightfastness.

| SMILES | lightness [1] | balance between the saturation and lightfastness [2] | lightness and saturation [1] | lightfastness [2] |
| --- | --- | --- | --- | --- |
| CCN(CC)c1ccc2c(c1)Oc1cc(N(CC)CC)ccc1C21OC(=O)c2ccccc21 [(1)] | satisfactory | not provided | – | – |
| Cc1ccc(Nc2ccc3c4c(cc(=O)n3C)-c3ccccc3C(=O)c24)cc1 [(2)] | – | – | not sufficient | satisfactory |
| Cc1ccc(/N=N/c2c(O)c(C(=O)O)cc3ccccc23)c(S(=O)(=O)O)c1 [(3)] | – | – | not sufficient | satisfactory |
